The test system of data set [1] is whole blood sample. In words: Visual inspection of stored whole blood sample for hemolysis. Type of data set: cell-based, human. Particulars: Table 5. The source says:
Skilled practitioners will appreciate the hemolyzed samples are an obvious visual clue that damage to blood cells has occurred, either during the collection, transport, or storage of blood samples. Although hemolysis is not necessarily detrimental to any one clinical assay, it is a well known interference for some tests, and thus it is preferable to avoid causing hemolysis. Hemolysis can be measured by visual scale (e.g., mild or slightly pink, moderate or noticeably red, or severe or dark red). Hemolysis can also be measured by spectroscopic measurement of the red color of the hemoglobin itself, and can be reported by the concentration of hemoglobin released into the serum or plasma (e.g., such that less than about 20 mg/dL concentration of released hemoglobin, or to an extent that the hemoglobin concentration cannot be measured visually or by spectroscopy represents “minor or negligible” hemolysis, about 20 to about 100 mg/dL represents “mild” hemolysis, about 100 to about 300 represents “moderate” hemolysis, or greater than about 300 mg/dL represents “severe” hemolysis).
(§1) The results are shown in Table 5 which lists additives alone or in combination that were spiked into freshly drawn whole blood samples. […] For some of the conditions tested, only a subset of these three parameters was recorded.

Data set [2] deals with platelets. The experiment in a line: Whole blood impedance aggregometry (Multiplate): platelet aggregation after room temperature storage of drawn blood. It is filed as cell-based, human. From the text:
The blood was allowed to stand at room temperature, in undisturbed aliquots, until tested at the times indicated. Samples were inverted several times immediately prior to testing, to re-suspend blood cells that naturally settle over time.
Measurements: Testing of platelet function (which in this experiment, was aggregation activity) was done using the Multiplate instrument (Verum Diagnostics, Munich, Germany), which uses whole blood as the sample and an increase in impedance as the measurement of platelet aggregation. The instrument was used per manufacturer's instructions. Briefly, 300 microliters of isotonic saline was warmed in each reaction cuvette, and to this was added 300 microliters of the whole blood sample. In reactions where aspirin or other platelet antagonists (inhibitors) were added in vitro, 20 microliters (μL) of a stock solution of aspirin was spiked into the samples. The aggregation reaction was initiated by addition of a platelet agonist, in this case collagen, at 3.2 μg/ml and volume (20 μl) per manufacturer's instructions. Upon addition of the collagen, the impedance measurements began automatically, and were continued for 6 minutes, representing the full course along the x-axis in the graphs shown in FIG. 2. The graphs show platelet aggregation, as reported by impedance, as an arbitrary unitless measurement on the y-axis, over the 6-minute run time on the x-axis. Traces shown are raw platelet aggregation data delivered from the instrument. […] Representative data are shown for blood that dwells at room temperature after the initial draw for 1 hr, 24 hr, 48 hr, and 72 hr. Data are shown for the blood itself, as well for blood pre-treated with aspirin to inhibit platelet function immediately prior to testing.
The experiments were performed as described in Example 1. In this case, the data are plotted as a function of time that the blood sample dwells outside of the body (x-axis) versus platelet function as shown as the area under the curve (AUC) as one representation of the platelet aggregation signal. AUC is the integrated signal from the raw data traces shown in Example 1, and also is reported as a unitless measurement. The effective background level of the instrument is drawn as a dashed line across the bottom of the graph. Any AUC measurement of aggregation at or below this level was considered so weak as to be unreportable, essentially representing a “null” data level.
(§2) Relative stability of platelets was examined with respect to a range of concentrations of variegin (SEQ ID NO:1). Experiments were performed as described above, using either collagen or adenosine diphosphate (ADP) as agonists, all per manufacturer's recommended protocols. Table 2 lists a qualitative assessment of stability, namely how long after initially drawing the blood was platelet aggregation measureable above the effective instrument baseline, the time to first visual observation of clotted, insoluble material in the whole blood sample, and an assessment of the severity or extent of the presence of this insoluble material was also recorded.
These peptides were used as the blood stabilization agent, and were spiked into blood immediately after collection into an empty, evacuated blood collection tube, achieving a final concentration of 150 μM. The blood was allowed to dwell in a whole-blood state at room temperature, until assayed for platelet aggregation potential, all as described in Example 1. Agonists used included collagen and ADP, following manufacturer's instructions.

For data set [3], the system named is platelets. The experiment in a line: Platelet aggregation measurements using low dose ADP agonist, inventive tube versus hirudin tube. Type of data set: cell-based, human. The arrangement: key to Aggregation, AUC: area under curve of impedance aggregation trace, arbitrary unitless units. Particulars: ADP 1.25 μM. Here is the method:
Measurements: Testing of platelet function (which in this experiment, was aggregation activity) was done using the Multiplate instrument (Verum Diagnostics, Munich, Germany), which uses whole blood as the sample and an increase in impedance as the measurement of platelet aggregation. The instrument was used per manufacturer's instructions. Briefly, 300 microliters of isotonic saline was warmed in each reaction cuvette, and to this was added 300 microliters of the whole blood sample. In reactions where aspirin or other platelet antagonists (inhibitors) were added in vitro, 20 microliters (μL) of a stock solution of aspirin was spiked into the samples. The aggregation reaction was initiated by addition of a platelet agonist, in this case collagen, at 3.2 μg/ml and volume (20 μl) per manufacturer's instructions. Upon addition of the collagen, the impedance measurements began automatically, and were continued for 6 minutes, representing the full course along the x-axis in the graphs shown in FIG. 2. The graphs show platelet aggregation, as reported by impedance, as an arbitrary unitless measurement on the y-axis, over the 6-minute run time on the x-axis. Traces shown are raw platelet aggregation data delivered from the instrument. The duplicate traces evident in some of the graphs represent two duplicate measurement channels that always ran simultaneously, to assist with statistical significance of the data, and often so closely overlap as to look like only a single trace in some graphs. Representative data are shown for blood that dwells at room temperature after the initial draw for 1 hr, 24 hr, 48 hr, and 72 hr. Data are shown for the blood itself, as well for blood pre-treated with aspirin to inhibit platelet function immediately prior to testing.
Relative stability of platelets was examined in blood that was collected from 5 different human subjects using an inventive blood collection tube containing 150 μM variegin (SEQ ID NO:1)+1.17 USP/mL unfractionated heparin, and as a comparison, blood collection tubes containing hirudin, commercially available from Verum Diagnostica (Catalog #MP0600 for “Hirudin vacuum blood collection tube”). Experiments were carried out as described above in Example 1, using the whole blood impedance aggregometer, and using a low dose of ADP (1.25 μM final concentration) as the agonist.

Data set [4] deals with whole blood sample. In words: Visual inspection of stored whole blood sample for clotted, insoluble material. Details: species or system human. Particulars: peptide 150 μM; room temperature. Here is the method:
as §2
These peptides were used as the blood stabilization agent, and were spiked into blood immediately after collection into an empty, evacuated blood collection tube, achieving a final concentration of 150 μM. The blood was allowed to dwell in a whole-blood state at room temperature, until assayed for platelet aggregation potential, all as described in Example 1. Agonists used included collagen and ADP, following manufacturer's instructions. Table 4 lists a qualitative assessment of stability, namely how long after initially drawing the sample was platelet aggregation measureable above the effective instrument baseline. Additionally, the time to first visual observation of clotted, insoluble material in the whole blood sample, and an assessment of the severity or extent of the presence of this insoluble material was also recorded. In some cases, only visual characterization of the amount of insoluble material was reported, without having performed any platelet aggregation measurements.
as §1

The mark [5] stands for this setting: Table 4, peptide spiked into blood to 150 μM final, collagen and ADP, room temperature.

Consider eight molecules from US10299714B2, “Blood collection devices containing blood stabilization agent including variegin or analog thereof and/or a polysulfated disaccharide” (Becton, Dickinson and Company, priority 2010, dated 2019).

Where a name gives a salt, the structure may show the parent alone. Non-standard residues stand in square brackets, D forms with d. Residues, ends and D or L forms follow the SMILES beside them. Oic = O=C(O)[C@@H]1C[C@@H]2CCCC[C@@H]2N1; Phe(4-Me) = Cc1ccc(C[C@H](N)C(=O)O)cc1

In the case of `O=S(=O)(O)OC[C@H]1O[C@@](COS(=O)(=O)O)(O[C@H]2O[C@H](COS(=O)(=O)O)[C@@H](OS(=O)(=O)O)[C@H](OS(=O)(=O)O)[C@H]2OS(=O)(=O)O)[C@@H](OS(=O)(=O)O)[C@@H]1OS(=O)(=O)O` [SOS, sucrose octasulfate], the “Visual inspection for hemolysis” value with whole blood sample [1] (additive alone at 2 mM) was “None-mild”.

In the case of `Cc1ccc(C[C@H](NC(=O)[C@@H](C)NC(=O)[C@@H]2CCCN2C(=O)[C@@H]2C[C@@H]3CCCC[C@@H]3N2C(=O)[C@H](N)CCCN=C(N)N)C(N)=O)cc1` [Thrombostatin (FM-19), rOicPaF(p-Me)—NH2] (H-[dR][Oic]P[dA][Phe(4-Me)]-NH2), in the data set with whole blood sample [1] (additive alone at 30 μM), the “Visual inspection for hemolysis” value is reported as “None-mild”.

Take `O=C(O)CC(O)(CC(=O)O)C(=O)O` [citrate, sodium citrate, reference compound]: the “platelet aggregation, area under the curve (AUC), FIG. 3” value in the data set on platelets [2] (24 hr after draw, collagen, no aspirin) is “very close to the effective null level”; with platelets [2] (48 hr after draw, collagen, no aspirin) it was “no meaningful aggregation was detected”. Also, in the data set with platelets [2] (all times longer than 1 hr (24, 48, 72 hr), collagen, sodium citrate ([…]) tube), the “platelet aggregation signal (impedance, FIG. 2)” value is “clearly lost, resulting in almost non-measureable signal”. In addition, the “loss of platelet function relative to the 1 hr sample (FIG. 4)” value in the data set with platelets [2] (within 24 hr, collagen, average of three human subjects) is recorded as “lost well more than half of their function”.

With `CC[C@H](C)[C@H](NC(=O)[C@H](C)NC(=O)[C@H](CCC(=O)O)NC(=O)[C@H](Cc1ccccc1)NC(=O)[C@H](CC(=O)O)NC(=O)[C@H](Cc1ccccc1)NC(=O)[C@@H]1CCCN1C(=O)[C@@H]1CCCN1C(=O)[C@H](C)NC(=O)[C@@H](NC(=O)[C@H](CCCCN)NC(=O)[C@H](Cc1cnc[nH]1)NC(=O)[C@H](CCSC)NC(=O)[C@H](CCCCN)NC(=O)[C@@H]1CCCN1C(=O)[C@H](CCC(=O)O)NC(=O)[C@H](C)NC(=O)[C@@H](NC(=O)[C@H](CC(=O)O)NC(=O)CNC(=O)[C@H](CCC(N)=O)NC(=O)[C@H](CC(=O)O)NC(=O)[C@@H](N)CO)C(C)C)[C@@H](C)O)C(=O)N1CCC[C@H]1C(=O)N[C@@H](CCC(=O)O)C(=O)N[C@@H](CCC(=O)O)C(=O)N[C@@H](Cc1ccc(O)cc1)C(=O)N[C@@H](CC(C)C)C(=O)N[C@@H](CC(=O)O)C(=O)N[C@@H](CC(=O)O)C(=O)N[C@@H](CCC(=O)O)C(=O)N[C@@H](CO)C(=O)O` [variegin], in the data set with whole blood sample [1] (additive alone at 150 μM), the “Visual inspection for hemolysis” value is “None-mild”. Besides, the “platelet aggregation signal (impedance, FIG. 2)” value with platelets [2] (24 and 48 hrs after draw, collagen, tube with 150 μM variegin, room temperature) is reported as “preserved platelet function substantially at the level of function measured in the 1 hr-old sample”; with platelets [2] (72 hr after draw, collagen, tube with 150 μM variegin, room temperature) it was “slightly reduced but still sufficiently strong”. The “platelet aggregation, area under the curve (AUC), FIG. 3” value in the data set on platelets [2] (72 hr after draw, collagen, 150 μM variegin) is listed as “meaningful measurements even at 72 hr”. Further, the “Time after blood draw where aggregation was still measurable above baseline” value in the data set with platelets [2] (Table 2, 2 μM variegin, collagen or ADP, room temperature) was 2 h; in the data set with platelets [2] (Table 2, 15 μM variegin, collagen or ADP, room temperature), 24 h; in the data set on platelets [2] (Table 2, 50 μM variegin, collagen or ADP, room temperature), 24 h; with platelets [2] (Table 2, 75 μM variegin, collagen or ADP, room temperature) it was 48 to 72 h; with platelets [2] (Table 2, 150 μM variegin, collagen or ADP, room temperature) it was at least 72 h; in the data set with platelets [2] (setting [5]), 72 h. For the same molecule, the “platelet aggregation signal maintained relative to the 1 hr sample (FIG. 4)” value in the data set with platelets [2] (as of 48 hr, collagen, average of three human subjects, 150 μM variegin) is “well more than half of the signal was maintained”. Moreover, the “strength of platelet aggregation signal (impedance, FIG. 2)” value in the data set with platelets [2] (fresh sample, 1 hr after draw, collagen […], tube with 150 μM variegin or sodium citrate ([…]), room temperature) is recorded as “higher than the citrate reference sample”.

Take “GDVAEPKMHKTAPPFDFEAIPEEYLDDES (Synthetic Peptide Variegin Fragment) [Ct29]”: the “Time after blood draw where aggregation was still measurable above baseline” value in the data set on platelets [2] (setting [5]) lay within 54 to 79 h.

Hirudin: the “Aggregation, AUC” value was found to be 34 with platelets [3] (0 hr, Subject 1); 18 in the data set on platelets [3] (0 hr, Subject 2); 84 in the data set with platelets [3] (0 hr, Subject 3); 113 in the data set on platelets [3] (0 hr, Subject 4); 59 in the data set on platelets [3] (0 hr, Subject 5); 27 in the data set on platelets [3] (24 hr, Subject 1). The “Aggregation, AUC” value amounted to 15 in the data set with platelets [3] (24 hr, Subject 2); 25 with platelets [3] (24 hr, Subject 3); 22 in the data set on platelets [3] (24 hr, Subject 4); 37 in the data set on platelets [3] (24 hr, Subject 5). Moreover, the “area under the curve for the 1 h sample” value in the data set on platelets [3] (one of the five samples) was found to be 18. In the data set on platelets [3] (time zero), the “aggregation (AUC), mean +/- spread of the 5 samples” value is 62+/−38.

As to “SDQGDVAEPAMHKTAPPFDFEAIPEEYLDDES (Synthetic Peptide Variegin Fragment) [K10A]”, in the data set on whole blood sample [4], the “time after blood draw to solid clotting of the sample” value is at most 4 h.

As for heparin [reference compound], the “blood stabilization performance (data not shown)” value with platelets [2] (used alone at 1.17 U/ml) is reported as “performed relatively poorly”.
